# Columns and labels:
# [1] = Mouse pharmacokinetic study, 7 days oral dosing, blood; assay type: in vivo; conditions: WT mice
# Protocol: Male C57Bl/6 mice (weight 20–30 g, age 6–8 weeks old) were obtained from Charles River Laboratories Canada, and acclimated for 5 days before the study. Three animals were dosed by oral gavage during 7 days with 20 mg/kg of VEN-02XX suspended in 0.5% w/v methylcellulose/0.2% w/v Tween 80, at a dose volume of 10 mL/kg. Food and water were available ad libitum to all animals. On day 7, serial blood samples were collected from a tail snip at 0.25, 0.5, 1, 2, 4, 6, and 24 h post-dose, and […] of blood was added to a micro tube racked system pre-filled with […] of 10 mM sodium citrate buffer (final blood/buffer ratio 1:3, or dilution factor of 4). The plate was stored at −20 °C until LC-MS/MS analysis.
# Concentrations of VEN-02XX in plasma and brain were determined by a LC-MS/MS assay. The plasma samples were thawed at room temperature and 20 μL aliquot of each sample was added to a 1.2 mL deep 96-well plate containing 20 µL ACN. The standard curve was prepared by making different dilutions in ACN. A 20 µL standard solution at each concentration was added into a 96-deepwell plate, followed by addition of 20 µL blank plasma or brain homogenate. Then, 200 μL of an internal standard mixture (5 ng/mL Glyburide and Loperamide in ACN) was added to each sample. The plates were vortexed and centrifuged at 4000 rpm for 10 min at 4 °C; 70 μL of the supernatant was diluted with 140 μL of water, and 10 μL of the solution was injected onto an analytical column. A Shimadzu UPLC system coupled with a SCIEX 4500 mass spectrometer (AB Sciex, Foster City, CA) was used for sample analysis. The mobile phase A was 0.1% FA in water and mobile phase B was 0.1% FA in 1/5 IPA/ACN. The gradient started at 10% B, held for 0.2 min and increased to 95% B in 1.3 min, maintained at 95% B for 0.7 min, and then decreased to 10% B within 0.01 min. The total flow rate was 0.5 mL/min, and samples were injected onto an Acquity UPLC BEH C18 (2.1 mm × 5 cm, 2.3 u) analytical column with a total run time of 2.5 min. Data were acquired using multiple reactions monitoring (MRM) in positive ion electrospray mode with an operating source temperature of 400 °C. Two transitions were monitored for VEN-02XX and the more sensitive transition with less interference (397.1 –> 270.1) was used for quantification.
# Pharmacokinetic parameters were determined by non-compartmental analysis using WinNonLin software (Phoenix^TM, version 8.3), and the following parameters were calculated from the plasma concentrations versus time data: T1/2, Cmax, Tmax, AUCinf, AUClast. When appropriate, the brain Kp was calculated as AUClast(brain)/AUClast(plasma). Free brain partition coefficient (Kpuu) was calculated using the free fraction in plasma and brain measured in a high throughput equilibrium dialysis assay.
# [2] = system: 5XFAD/Rubicon KO mice; assay: Spontaneous alternation (Y-maze) in 5XFAD/Rubicon KO mice; assay type: in vivo, mouse
# Protocol: (§1) 5XFAD/Rubicon KO mice received vehicle (0.5% w/v methylcellulose/0.1% w/v Tween® 80 in water) or VEN-02XX (0.01, 1, or 20 mg/kg) every day by oral gastric gavage for 9 weeks.
# Spontaneous alternation was measured in a standard Y-maze setup. Mice were acclimated to the testing room for 48 h. In each 5-min trial, percent spontaneous alternation was measured as […][32]. Any mouse with less than 5 arm entries during the 5 min trial was excluded from the analysis.
# [3] = system: 5XFAD/Rubicon KO mice; assay: Plasma neurofilament light chain (NfL) ELISA in 5XFAD/Rubicon KO mice; assay type: in vivo, mouse; conditions: 20 mg/kg, 9 weeks PO QD; lack of a dose-response
# Protocol: as §1
# Blood was collected via submandibular puncture. Briefly, mice were immobilized, and a small puncture was made in the submandibular vein using a sterile 28 g lancet. Blood was collected using a capillary tube coated in 0.5 M EDTA into separation tubes for plasma as indicated. Blood was subsequently centrifuged for 15 min at 13,000 rpm in a refrigerated centrifuge. Plasma was harvested as indicated and was either used immediately or stored at −80 °C until use.
# Brain tissue was homogenized in PBS, pH 7.4 with 1X Halt™ protease inhibitor cocktail (Thermo Fisher Scientific, Waltham, MA) using a Bead Ruptor homogenizer (Omni International, Kennesaw, GA). Homogenates were clarified by centrifugation at 10,000 × g for 10 min. The crude homogenate was used for quantification of VEN-02XX levels, as described below. Total protein concentrations were quantified from clarified supernatants in a Pierce BCA protein assay (Thermo Fisher Scientific). Cytokine and chemokine levels were quantified using an electrochemiluminescence immunoassay (ECLIA) for IL-1β (total), TNFα, IL-6 and IP-10 (U-PLEX Custom Biomarker Group 1 (mouse) assay, Meso Scale Discovery, Rockville, MD) following the manufacturer’s instructions. […]
# [4] = male, C57Bl/6, mouse, whole blood, blood, 20 mg/kg PO QD for seven days
smiles,measurement,setting,value
CC(C)(O)CNc1nnc(-c2ccc(Cl)cc2C(F)(F)F)c2ccncc12 [VEN-02XX],NLRP3 inhibitory activity maintained by exposure,"[1]; 20 mg/kg PO once daily, 7 days",sufficient to maintain a 50% inhibitory activity of NLRP3 throughout the dosing schedule
same,AUC(0-inf),[1]; [4],143 µM·h
same,Cmax,[1]; [4],20.7 µM
same,Tmax,[1]; [4],1 h
same,half-life,[1]; [4],190 min
same,spontaneous alternation (Y-maze),"[2]; 9 weeks, 0.01, 1, 20 mg/kg PO QD vs vehicle",striking dose-dependent improvement
same,"spontaneous alternation (Y-maze), learning and memory","[2]; 9 weeks, 20 mg/kg PO QD",restoration of learning and memory to near wild type control levels for most animals
same,plasma NfL levels,[3],significantly reduced
